Read-outs that look alike come from different tables or passages of the source.
Legend:
GSH:GSSG ratio = GSH:GSSG ratio in treated worms; format: cell-based, Schistosoma mansoni; conditions: after 6 h of treatment with 10 μM AF
Method: AF was dissolved in DMSO and added to freshly perfused worms in DMEM to 10 μM. Control worms were treated with equal amounts of carrier. Worms were subsequently observed for unpairing, motility, and mortality, and were collected at the indicated time intervals for analysis. Worms were homogenized by sonication in PBS and homogenates were assayed for TrxR and GR activities as described above. […] Each assay was done in triplicate and each experiment was done three times.

myeloma cell line SP2/0 = assay: Cytotoxicity assay (sulforhodamine B); format: cell-based; conditions: for 5 d
Method: Cytotoxicity assays were performed using sulforhodamine B to determine cellular protein content as described. Briefly, myeloma cell line SP2/0 was cultured in 96-well microtiter plates containing 0.2 ml of RPMI-1640 per well at a cell density of 1,000 per well at 37 °C in 5% CO2. Cells were treated with drug concentrations (or drug carrier alone) and exposure times as indicated. After treatment, cells were fixed with 10% TCA at 4 °C for 1 h. Fixed cells were rinsed to remove fixative and then stained in 0.4% (w/v) sulforhodamine B (Sigma) in 1% acetic acid for 30 min. After washing with 1% acetic acid and dye extraction in 10 mM Tris (pH 10.5), plates were read at A564nm. The A564nm of drug-treated cells was compared to carrier-only-treated cells. The treatments were done in triplicate and the experiments repeated three times.

schistosomula = assay: Schistosomula survival after RNAi and/or drug treatment; format: cell-based, Schistosoma mansoni; conditions: AF at 2 μM; TGR dsRNA
Method: Cercariae were mechanically transformed to schistosomula by vortexing, and bodies were separated from tails by Percoll gradient centrifugation as described [13]. Immediately after transformation, TGR dsRNA or irrelevant dsRNA (each at 54 μg/ml) was added to ~500 schistosomula in 50 μl water followed by incubation at 37 °C for 30 min. After addition of 250 μl of RPMI-1640 medium, 300 U/ml penicillin, and 175 μg/ml streptomycin, parasites were incubated at 37 °C in 5% CO2 atmosphere for 4 d. Reduced O2 tension was obtained by filtering media and purging with 95% N2, 5% CO2 for 20 min before use. Parasites were cultured during the course of the experiment in the appropriate gaseous mix at 37 °C in a sealed modular incubator chamber (Billups-Rothenberg, http://www.brincubator.com) flushed with the same gaseous mix. On day 2 of the experiment, 50 μl of fresh media was added. Schistosomula were assessed daily for viability by microscopy. For each time point at least 1,500 parasites were scored as alive or dead in each experiment (three replicates of 500 each), and each experiment was repeated three times.
(B) Parasites were cultured in the presence of double-stranded TGR RNA (dashed lines) or of double-stranded irrelevant RNA (solid lines) in 20% O2 (♦) or 0% O2 (). […] (C) Combination of RNAi and drug treatments. Solid lines are irrelevant dsRNA treatments and dashed lines are dsTGR treatments; no additions (♦), 2 μM praziquantel () and 2 μM AF (▴). […] In each experiment for each time point at least 1,500 parasites were scored as alive or dead (three replicates of 500 parasites). The error bars represent the standard deviations of three independent experiments.

Human TrxR = biological target: T1, Human TrxR (Homo sapiens, UniProt Q16881); conditions: read-out: IC50 Human TrxR, DTNB/Trx; cited from earlier work
T1 sequence (Q16881 1-499 isoform Q16881-5): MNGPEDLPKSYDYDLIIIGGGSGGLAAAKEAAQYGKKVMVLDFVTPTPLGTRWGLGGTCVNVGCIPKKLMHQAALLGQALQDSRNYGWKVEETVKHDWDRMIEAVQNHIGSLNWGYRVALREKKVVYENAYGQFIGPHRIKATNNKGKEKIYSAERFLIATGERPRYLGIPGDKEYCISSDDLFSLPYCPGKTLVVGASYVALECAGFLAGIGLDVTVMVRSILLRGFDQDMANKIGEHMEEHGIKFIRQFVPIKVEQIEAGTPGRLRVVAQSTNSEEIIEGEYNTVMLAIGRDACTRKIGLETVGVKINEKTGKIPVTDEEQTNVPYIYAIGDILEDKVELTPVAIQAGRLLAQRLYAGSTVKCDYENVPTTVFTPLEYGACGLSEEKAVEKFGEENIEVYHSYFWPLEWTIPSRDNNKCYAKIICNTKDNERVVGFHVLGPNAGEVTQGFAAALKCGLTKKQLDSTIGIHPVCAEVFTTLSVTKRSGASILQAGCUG

S. mansoni TGR [1] = biological target: T2, S. mansoni TGR (Schistosoma mansoni, UniProt Q962Y6); format: biochemical; parameters: The entire TGR ORF plus the SECIS element was subcloned into pET-24a; made in house; host or cells: Escherichia coli BL21(DE3) with pSUABC; conditions: read-out: IC50 S. mansoni TGR, DTNB (TrxR activity); 3 mM DTNB, 15 min preincubation with 100 μM NADPH
T2 sequence (Q962Y6 1-598): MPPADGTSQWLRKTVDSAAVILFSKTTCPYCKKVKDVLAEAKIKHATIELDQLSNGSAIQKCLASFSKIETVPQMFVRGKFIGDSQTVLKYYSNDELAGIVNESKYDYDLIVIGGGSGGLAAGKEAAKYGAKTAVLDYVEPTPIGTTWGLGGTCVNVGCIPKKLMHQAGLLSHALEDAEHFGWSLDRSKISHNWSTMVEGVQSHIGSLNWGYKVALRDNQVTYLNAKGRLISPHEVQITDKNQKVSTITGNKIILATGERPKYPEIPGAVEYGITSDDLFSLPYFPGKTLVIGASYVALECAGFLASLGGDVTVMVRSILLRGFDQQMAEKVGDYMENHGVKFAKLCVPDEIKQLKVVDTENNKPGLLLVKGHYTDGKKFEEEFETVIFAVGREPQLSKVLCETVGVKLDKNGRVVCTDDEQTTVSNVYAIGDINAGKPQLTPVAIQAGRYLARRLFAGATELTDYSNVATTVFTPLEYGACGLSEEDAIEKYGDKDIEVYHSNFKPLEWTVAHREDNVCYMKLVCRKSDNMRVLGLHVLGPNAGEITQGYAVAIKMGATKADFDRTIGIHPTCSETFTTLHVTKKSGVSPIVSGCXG
Method: (§1) Assays were performed at 25 °C in 0.1 M potassium phosphate (pH 7.4), 10 mM EDTA using 100 μM NADPH unless otherwise stated.
(§2) Initial inhibitor screens were conducted in 200 μl volumes in 96 well plates with 50 μM inhibitor, 100 μM NADPH, and 5 nM TGR in 0.1 M potassium phosphate (pH 7.4), 10 mM EDTA with a preincubation step of 15 min. […] All assays were done in triplicate.

S. mansoni TGR [2] = biological target: T2, S. mansoni TGR; format: biochemical; parameters: The entire TGR ORF plus the SECIS element was subcloned into pET-24a; made in house; host or cells: Escherichia coli BL21(DE3) with pSUABC; conditions: read-out: IC50 S. mansoni TGR, GSSG (GR activity); 100 μM GSSG, 15 min preincubation with 100 μM NADPH
Method: as §1, §2

S. mansoni TGR [3] = biological target: T2, S. mansoni TGR; assay: IC50, Grx activity of TGR (HED assay), 15 min preincubation; format: biochemical; parameters: The entire TGR ORF plus the SECIS element was subcloned into pET-24a; made in house; host or cells: Escherichia coli BL21(DE3) with pSUABC; conditions: 8 mM HED plus 1 mM GSH, 15 min preincubation with 100 μM NADPH
Method: as §1, §2

CC(=O)OC[C@H]1O[C@@H]([S-])[C@H](OC(C)=O)[C@@H](OC(C)=O)[C@@H]1OC(C)=O.CCP(CC)CC.[Au+] [AF, auranofin]
Decrease of GSH:GSSG ratio (GSH:GSSG ratio): 85% | Concentration tolerated by mammalian cell line (myeloma cell line SP2/0): 100 µM | Schistosomula survival after 1 d (schistosomula): 93.7% | Schistosomula survival after 2 d (schistosomula): 66.1% | IC50 (Human TrxR): 20 nM | IC50 (S. mansoni TGR [1]): 7 nM | IC50 (S. mansoni TGR [2]): 9 nM | IC50 (S. mansoni TGR [3]): 6 nM
